Laboratory results reported in article PMC10214526, “Semisynthetic LC3 Probes for Autophagy Pathways Reveal a Noncanonical LC3 Interacting Region Motif Crucial for the Enzymatic Activity of Human ATG3” (ACS Central Science, 2023).

Columns and labels:
Assay type in all cases: biochemical, human
[1] = system: ATG3 C1 alanine variants; assay: Alanine screen: cross-linking of probe 2 with ATG3 C1 alanine variants; details: probe 2 15 μM, PBS, 37 °C, 30 min, n = 2
Method: Figure 4 Dissection of interactions between GABARAP and LIR^ATG3 by alanine scanning. GABARAP probe 2 (15 μM) was reacted with ATG3 C1 alanine variants (15 μM) for 30 min. Coomassie Blue stained SDS-PAGE gel showing modification of ATG3 C1 variants with GABARAP methyl fumarate. The indicated ATG3 residues were mutated to alanine. Cross-linking efficiency was estimated by gel densitometry and normalized to the reaction with ATG3 C1. Data are presented as average values ± s.d. n = 2 independent experiments. Full-gel images are available in the Supplementary Information.
Farnung et al. Supplementary Information
(§1) SDS-PAGE (8-16%, Bio-Rad) and visualized by Coomassie staining. Gel bands were quantified by gel densitometry using ImageLab (Bio-Rad).
ATG3 C1 (15 μM) was mixed with GABARAP methyl fumarate 2 (15 μM) in PBS, and the reaction mixture was incubated at 37 °C for 30 min. The reaction was quenched by addition of 2x Laemmli buffer and boiled at 95 °C for 5 min. Samples were resolved by SDS-PAGE (8-16%, Bio-Rad) and visualized by Coomassie staining. Gel bands were quantified by gel densitometry using ImageLab […]
3.9. Structure prediction […]
! ! ( )"% - ) ( $&, . "#*( *"&% % *! "#*( * &% %*( * +% ( ( + '( ))+( ! )&#+*"&%- )*("*+( * -"*! * % %*(" + *&& * "% (+ ' '*" ! […]

[2] = system: ATG3 C1; assay: NaCl dependence of cross-linking of probe 2 with ATG3 C1; details: probe 2 15 μM, ATG3 C1 15 μM, phosphate buffer, NaCl 0-500 mM, 37 °C, 30 min; n = 3
Method: Farnung et al. Supplementary Information […]
electrostatic representation of ATG3 LIR motif and GABARAP
Figure S13. Interaction of ATG3 and GABARAP is salt-dependent. a, ColabFold prediction of ATG3-GABARAP complex (in Fig. 1c) shown with its Coulombic potential. Only LIR motif of ATG3 shown for clarity.
LIRATG3 is mostly negatively charged and binds to a strongly positively charged surface on GABARAP. b, Binding of cyclized LIRATG3 peptide to GABARAP (0.2 μM) in the presence of varying amounts of NaCl. Binding was performed in triplicates and normalized to polarization for 0 mM NaCl. c, Modification of ATG3 C1 with 2 in the presence of increasing concentrations of NaCl (0 -500 mM). Coomassie Blue stained SDS-PAGE gel was analyzed by gel densitometry. d, Quantification of data shown in […]. […]
Figure S14. […] Lipidation was assessed by immunoblotting against LC3A/B. Lipidation was observed upon re-expression of ATG3 wt but not ATG3 C264A or ΔLIR. As a positive control wild-type HEK293T cells were starved and analyzed in parallel to ATG3 –/– cells. […]
as §1
ATG3 C1 (15 μM) was mixed with GABARAP methyl fumarate 2 (15 μM) in PBS, and the reaction mixture was incubated at 37 °C for 30 min. […] Gel bands were quantified by gel densitometry using ImageLab […]

[3] = system: ATG3; assay: Reaction (cross-linking) of Ubl activity-based probes with recombinant ATG3 and variants; details: probe 15 μM; ATG3 wt, C264A and ΔLIR 5 μM; SDS-PAGE (Figure S9)

For “GABARAP(ΔG116)–NHNH methyl-fumarate [compound 2]”, the “Cross-linking with ATG3 D109 or T110 mutants” value ([1]; D109 or T110 to alanine, ATG3 C1 variant 15 μM) was “almost no effect on reaction efficiency”, the “Cross-linking with ATG3 E95 and I97 mutants” value ([1]; E95 and I97 to alanine, ATG3 C1 variant 15 μM) was “severely diminish cross-linking” and the “Cross-linking with ATG3 V108A” value ([1]; V108A, ATG3 C1 variant 15 μM, relative to ATG3 C1) was “significantly reduced the cross-linking efficiency”. For the same substance, the “Cross-linking with ATG3 W107 mutant” value ([1]; W107A, ATG3 C1 variant 15 μM, relative to ATG3 C1) was “almost completely abrogated the reaction”, the “Cross-linking with other ATG3 alanine mutants” value ([1]; majority of the other screened residues) was “at least some impact on the conjugation with GABARAP” and the “Effect of increasing NaCl on cross-linking with ATG3 C1” value [2] was “reduced”. For the same substance, the “LIR dependence of ATG3 wild-type modification” value [3] was “dependent on LIRATG3”.
